Data reported in patent US9675646B2, “Tubular bioengineered smooth muscle structures” (WAKE FOREST UNIVERSITY HEALTH SCIENCES, priority 2012, dated 2017).
Where no end group is shown, it is not given here.

Test system: rabbit esophageal circular smooth muscle tissue constructs
Test: Real time isometric force generation of bioengineered esophageal smooth muscle constructs
Assay type: cell-based
Conditions: isometric force transducer, tissue bath 37° C., constructs taken off chitosan scaffold, stretch baseline set to zero
Source text: Tubular esophageal tissue was tissue-engineered to mimic the mechanical and physiological function of a native esophagus. Several concentrically aligned esophageal circular smooth muscle tissue constructs were bioengineered using collagen hydrogel. Three-dimensional smooth muscle tissue constructs were bioengineered. Rabbit esophageal constructs were bioengineered by laying down 5×10^5 rabbit esophageal circular smooth muscle cells in collagen gel on a Sylgard-coated plate with a central post. The smooth muscle constructs were placed around a 2.5 cm long hollow chitosan tube and biodegradable surgical glue was applied between the smooth muscle constructs and along their circumference. The constructs were maintained around the scaffold in culture for 5 days. The constructs were taken off the scaffold and tested to determine cholinergic contraction in response to Acetylcholine (Ach) and relaxation in response to vasoactive intestinal peptide (VIP). An isometric force transducer (Harvard Apparatus, Holliston, Mass.) was used to record real time force generated by the constructs. The constructs were kept incubated in a warm tissue bath keeping the tissue samples at conditions of 37° C.±1° C. The bioengineered tissue constructs were taken off the scaffold at day 15 for force generation measurement. […]

Molecule	relaxation (change in force generation) (FIG. 2) [μN]	contraction (change in force generation) (FIG. 1) [μN]
vasoactive intestinal peptide (HSDAVFTDNYTRLRKQMAVKKYLNSILN; ends and bridges not checked; UniProt P01282 125-152, looked up) [VIP, relaxant peptide used to test construct relaxation]	−35	–
CC(=O)OCC[N+](C)(C)C [Ach, Acetylcholine]	–	45
